Like-named read-outs stand apart in the source and are kept apart here.
How the values were obtained:
[1] = tested on: T. cruzi epimastigotes (Dm28c strain); assay: Anti-epimastigote effect (proliferation/survival, counting of viable forms); type: cell-based, Trypanosoma cruzi; settings: for activity on proliferation/survival of epimastigotes (in words): 100, 50, 25 and 2 μM; for IC50: read-out: IC50 T. cruzi
Method: The four natural compounds (CUR, DMC, BDMC and CC) were evaluated on the proliferation/survival of T. cruzi epimastigotes (Dm28c strain) in four different concentrations (100, 50, 25 and 2 μM). The parasites were cultivated for 7 days in BHI (Brain Heart Infusion) medium supplemented with 10% (v/v) fetal bovine serum. Controls were incubated solely and with 0.02% DMSO and the cultures were readily incubated with the natural compounds. Mobile epimastigote forms were considered as viable forms, and were counted on Neubauer chambers using phase contrast microscopy.
Epimastigotes of T. cruzi (Dm28c strain) were cultured at 27°C in Bacto™ Brain Heart infusion (BHI, Becton Dickinson Company, USA) supplemented with 10 μg.mL^-1 hemin, 0.02 g.L^-1 folic acid (from Sigma-Aldrich, USA) and 10% (v/v) of heat inactivated fetal bovine serum (FCS, Gibco/Life technologies).
Epimastigotes forms of T. cruzi, Dm28c strain (2x10^5 cells.mL^-1), were grown for 7 days in BHI culture medium at 26°C. Some cultures were treated with curcumin (CUR), demethoxycurcumin (DMC), bisdemethoxycurcumin (BDMC) or cyclocurcumin (CC) at concentrations of 100, 50, 25 and 2 μM. Viable forms were counted in Neubauer chambers under phase contrast microscopy using 40X objectives. Data representing three independent experiments.
Supplementary file pone.0162926.s002.tif: S2 Fig T. cruzi epimastigotes (Dm28c strain) were cultivated for 7 days in BHI (Brain Heart Infusion) culture medium supplemented with hemin, folic acid and 10% fetal bovine serum at 26°C, and readily treated with CUR, DMC, BDMC and CC at the indicated concentrations ranging from 2 to 100μM. Viable forms were counted on Neubauer chambers under phase microscopy at the seventh day. The data presented were obtained from three representative independent experiments. (TIF) Click here for additional data file.

[2] = tested on: T. cruzi epimastigotes (Dm28c strain); assay: Flow cytometry analysis of the cell cycle (DNA content); type: cell-based, Trypanosoma cruzi; settings: 48 h
Method: The cultures treated with CUR, DMC and BDMC at a concentration of 100 μM led to an accumulation of, respectively, 45%, 52% and 40% of cells in the G2 phase, while in the non-treated cells, G2 population was 20%. The ability to arrest cells in the G2/M phase is a characteristic of microtubule-interacting agents. For this reason, we used paclitaxel as positive control, a known microtubule drug that is active against Trypanosomatidae organisms. Consistently with its action on microtubules, paclitaxel promoted an accumulation of 57% of cells in the G2 phase (Fig 9). Thus, the effects of curcuminoids in the cell cycle can be explained, at least partially, by the disturbance of microtubules, in agreement with the mechanism of interaction with tubulin proposed by the electron microscopy experiments. The arising of sub-G1 peaks possibly correspond to apoptotic cells, what is more prominent in paclitaxel than in the curcuminoids treated cultures and the small sub-G1populations indicate that curcuminoids promote low apoptosis (Fig 9).
Fig 9 Percentage of cells in different phases of cell cycle. Cells were treated with CUR and DMC at 10, 50 and 100 μM concentrations and with 100 μM BDMC. Paclitaxel (20 μM) was employed as positive control, and DMSO 0.02% as negative control. Results are the mean of the triplicates with standard deviation represented by error bars. Statistical significance relative to control * P<0.05, ** P<0.01 and *** P<0.001. The data shown were obtained from three independent experiments.
Epismatigotes forms of T. cruzi (Dm28c strain) were grown at 28°C in BHI medium at a concentration of 2x10^6 cells.mL^-1 in 12-well culture plates (TPP™, Switzerland). Test compounds (CUR, DMC and BMDC) were added in triplicate at concentrations of 10, 50 and 100 μM. The controls used were the vehicle (DMSO 0.02%) and paclitaxel at 20 μM concentration. After 48 h of incubation, parasites were fixed in ethanol 70% for 30 min at -20°C. Next, cells were centrifuged at 200 rcf for 8 min and washed with PBS. Then, the samples were incubated for 10 min with a permeabilization buffer (0.2 M Na2HPO4 and 0.005% Triton-X, pH 7.8). Finally, cells were centrifuged at 200 rcf for 8 min and stained in a solution of 50 μg.mL^-1 propidium iodide (PI) and 0.2 μg.mL^-1 RNAse for 30 min at room temperature. DNA content was analyzed measuring PI fluorescence in a BD […] cytometer (Becton Dickinson Company, USA) at 488 nm excitation wavelength and 585/40 nm emission filter.
Supplementary file pone.0162926.s006.tif: S6 Fig Representative fluorescence histograms showing DNA content of cell-cycle phases (Sub-G1, G1, S and G2) of parasites (Dm28c strain). […]

MCF-7 tumor cells = tested on: MCF-7 tumor cells; design: method as in PMID 9714342; settings: cited from earlier work
[3] = tested on: Peritoneal macrophages (Mø); type: cell-based; settings: murine peritoneal macrophages, 48 h, trypan blue
Method: (§1) The natural products have been subjected to a cytotoxicity assay on two distinct murine cell types. These compounds were tested upon macrophages (Mø), which are host cells during T. cruzi infection and splenocytes as lymphocytes are highly sensitive to external agents. The maintenance of cell viability at presence of the curcuminoids may indicate their low toxicity to mammalian cells. Peritoneal macrophages harvested from Balb/c mice were treated for 48 hours with concentrations of each test substance (S3 Fig). Splenocyte viability assays were performed in cells obtained from BALB/c mice and grown from a 5x10^5 cells.mL^-1 suspension (S4 Fig). For both cell types, viability was assessed by the trypan blue dye exclusion method, because colorimetric methods such as XTT were not suitable due to influence of the curcumin chromophoric properties. The results obtained on the evaluation of CUR, DMC, BDMC and CC against T. cruzi epimastigotes as well as the results of two host cell types treated with a 100 μM concentration of each compound are summarized in Table 1. […]
Supplementary file pone.0162926.s003.tif: S3 Fig Peritoneal macrophages obtained from BALB/c mice were cultured in triplicates at concentration of 5x10^5cells.mL^-1. […] Cell viability was assessed by exclusion method using trypan blue. […]

Splenocytes = type: cell-based; settings: murine splenocytes, 48 h, trypan blue
Method: as §1, with “properties.” for “properties. The results obtained on the evaluation of CUR, DMC, BDMC and CC against T. cruzi epimastigotes as well as the results of two host cell types treated with a 100 μM concentration of each compound are summarized in Table 1.”
Splenic lymphocytes were obtained from male BALB/c mice and plated at 5x10^5 cells.mL^-1 in triplicate. […] Viability was evaluated by the exclusion method using trypan blue and the data shown is representative of three independent experiments.
Supplementary file pone.0162926.s004.tif: S4 Fig Lymphocytes were obtained from the spleen of BALB/c mice and cultivated at concentration of 5x10^5 cells.mL^-1. […] Cell viability was assessed by exclusion method using trypan blue. […]

[4] = tested on: Sterol 14α-demethylase (CYP51); assay: Sterol content (lanosterol/ergosterol ratio) of treated epimastigotes by RP-HPLC; type: cell-based, Trypanosoma cruzi
Method: Since the detachment of the flagellar membrane was reported in T. cruzi and L. amazonensis treated with sterol biosynthesis inhibitors, the results obtained in microscopy study led us to investigate the sterol content of epimastigotes treated with CUR. Sterol 14α-demethylase (CYP51) is the enzyme involved in conversion of lanosterol to ergosterol in the parasite cell by oxidative removal of the sterol 14α-methyl group, being a key step in the biosynthesis of cell membrane 14 α-demethylated sterols and consequently in the maintenance of the cell viability. Thus, this enzyme is a promising target for chemotherapy of Chagas disease. The method reported by Pinto and co-workers for steroid determination on fungi was adapted to T. cruzi epimastigotes. After saponification followed by n-hexane extraction of a T. cruzi epimastigote pellet cultivated in the presence of two different concentrations of CUR, the organic layer was concentrated and submitted to RP-HPLC analysis (as shown in S5 Fig). […] It seems that in both treatments the parasite membrane-cytoskeleton linkage has been compromised.
6x10^6 epimastigotes of T. cruzi (Dm28c strain) were grown for 7 days in 30mL of BHI culture medium at 26°C. Some cultures were treated with curcumin (CUR, 5 and 10 μM), posaconazole (0.05 and 0.1 μM). The cultures were submitted to centrifugation at 2100 rpm for 10 minutes. […]

[5] = Trypanosoma cruzi, 168 h, epimastigotes, Dm28c strain, 7 days

Which “activity on proliferation/survival of epimastigotes (in words)” value (from here on “activity on proliferation/survival”) ([1]; 7 days) does the source give for `O=C(/C=C/c1ccc(O)cc1)CC(=O)/C=C/c1ccc(O)cc1` [BDMC, bisdemethoxycurcumin] here?
Its value is “active”.

And the IC50 [1, 5]?
The IC50 was 45.3 µM.

And the “cells in the G2 phase” value ([2]; 100 μM, non-treated cells 20%)?
The value was 40%.

Which “activity on proliferation/survival” value ([1]; 7 days) does the source give for `COc1cc(/C=C/C2=CC(=O)CC(c3ccc(O)c(OC)c3)O2)ccc1O` (centres unmarked) [CC, cyclocurcumin] here?
Its value is “inactive”.

What about the IC50 [1, 5] of the same compound?
The IC50 was greater than 100 µM.

And the “inhibition of MCF-7 tumor cells proliferation” value (MCF-7 tumor cells)?
Its value is “inactive”.

Which “activity on proliferation/survival” value ([1]; 7 days) does the source give for demethoxycurcumin [DMC] here?
Its value is “active”.

And the IC50 ([1]; epimastigotes, Dm28c strain, 7 days)?
The IC50 was 11.1 µM.

What about the “LD50 Mø” value [3] of the same compound?
Its value is greater than 100 µM.

And the “LD50 Splenocytes” value (Splenocytes)?
The value was greater than 100 µM.

And the “cells in the G2 phase” value ([2]; 100 μM, non-treated cells 20%)?
The value was 52%.

Which “activity on proliferation/survival” value ([1]; 7 days) does the source give for `COc1cc(/C=C/C(=O)CC(=O)/C=C/c2ccc(O)c(OC)c2)ccc1O` [CUR, Curcumin] here?
Its value is “active”.

What about the IC50 ([1]; Trypanosoma cruzi, 168 h) of the same compound?
Its IC50 is 10.1 µM.

What about the “lanosterol/ergosterol ratio vs untreated control” value ([4]; CUR 5 and 10 μM, 7 days) of the same compound?
Its value is “no significant difference”.

What about the “cells in the G2 phase” value ([2]; 100 μM, non-treated cells 20%) of the same compound?
The value was 45%.

With `CC[C@@H]([C@H](C)O)n1ncn(-c2ccc(N3CCN(c4ccc(OC[C@@H]5CO[C@@](Cn6cncn6)(c6ccc(F)cc6F)C5)cc4)CC3)cc2)c1=O` [posaconazole, reference compound] as the compound, how does the “lanosterol/ergosterol ratio vs untreated control” value ([4]; posaconazole 0.05 and 0.1 μM, positive control) read?
Its value is “significant increase”.

With `CC(=O)O[C@H]1C(=O)[C@@]2(C)[C@H]([C@H](OC(=O)c3ccccc3)[C@]3(O)C[C@H](OC(=O)[C@H](O)[C@@H](NC(=O)c4ccccc4)c4ccccc4)C(C)=C1C3(C)C)[C@]1(OC(C)=O)CO[C@@H]1C[C@@H]2O` [paclitaxel, reference compound] as the compound, how does the “cells in the G2 phase” value ([2]; 20 μM, positive control) read?
The value was 57%.
